Earlier results, collected in PMC6838683, “Discovery of Human Signaling Systems: Pairing Peptides to G Protein-Coupled Receptors” (Cell, 2019).
Read-outs that look alike come from different tables or passages of the source.

Test system: human GPCRs
Set-up: method as in Guide to Pharmacology database
Conditions: max reported value, ref Guide to Pharmacology database, cited from earlier work
Description: Supplement mmc1.xlsx, sheet "HumanGPCRLigands" | column: pKi_value; pKd_value; pEC50_value; pIC50_value

[1] = receptor p2ry2_human (P2RY2), P2Y receptors
[2] = receptor p2ry4_human (P2RY4), P2Y receptors
[3] = receptor p2y11_human (P2RY11), P2Y receptors
[4] = receptor gp183_human (GPR183), Class A orphans
[5] = receptor LTB4R2 (lt4r2_human, Q9NPC1)
[6] = receptor LTB4R (lt4r1_human, Q15722)
[7] = receptor p2ry1_human (P2RY1), P2Y receptors
[8] = receptor p2y13_human (P2RY13), P2Y receptors
[9] = receptor grm2_human (GRM2, Q14416)
[10] = receptor grm3_human (GRM3, Q14832)
[11] = receptor grm7_human (GRM7, Q14831)
[12] = receptor grm8_human (GRM8, O00222)
[13] = receptor CYSLTR1 (cltr1_human, Q9Y271)
[14] = receptor CYSLTR2 (cltr2_human, Q9NS75)
[15] = receptor fpr2_human (FPR2, P25090)
[16] = receptor PTAFR (ptafr_human, P25105)
[17] = receptor PTGDR2 (pd2r2_human, Q9Y5Y4)
[18] = receptor PTGDR (pd2r_human, Q13258)
[19] = receptor pe2r2_human (PTGER2), Prostanoid receptors
[20] = receptor pe2r4_human (PTGER4), Prostanoid receptors
[21] = receptor pf2r_human (PTGFR), Prostanoid receptors
[22] = receptor pe2r1_human (PTGER1), Prostanoid receptors
[23] = receptor pe2r3_human (PTGER3), Prostanoid receptors
[24] = receptor ta2r_human (TBXA2R), Prostanoid receptors

In the case of O=c1ccn([C@@H]2O[C@H](CO[P@@](=O)(O)O[P@@](=O)(O)OP(=O)(O)O)[C@@H](O)[C@H]2O)c(=O)[nH]1 (stereo in doubt) [uridine triphosphate], the pEC50_value [1] is given as 8.1, the pEC50_value [2] is given as 6.3 and the pEC50_value (receptor p2ry6_human (P2RY6), P2Y receptors) is given as 5.2. For the same compound, the pEC50_value [3] was 5.2.

For CCCCCC(O)CC(=O)O (stereo not drawn) [3-hydroxyoctanoic acid], the pEC50_value (receptor hcar3_human (HCAR3), Hydroxycarboxylic acid receptors) is listed as 5.1.

In the case of CCCCCCCC/C=C\C/C=C\C=C/C(=O)CCCC(=O)O [5-oxo-C20:3], the pEC50_value (receptor OXER1 (oxer1_human, Q8TDS5)) is given as 8.

In the case of C[C@H](CCCC(C)(C)O)[C@H]1CC[C@H]2[C@@H]3[C@H](O)C=C4C[C@@H](O)CC[C@]4(C)[C@H]3CC[C@]12C [7α,25-dihydroxycholesterol], the pEC50_value [4] is given as 9.9 and the pIC50_value [4] is given as 9.6.

In the case of CCCCCC(O)C=CC=CCC=CCCCC(=O)O (stereo not drawn) [12-hydroxyheptadecatrienoic acid], the pEC50_value [5] is given as 7.7 and the pIC50_value [5] is given as 8.6.

In the case of C[C@]12CC[C@@H]3c4ccc(O)cc4CC[C@H]3[C@@H]1CC[C@@H]2O [17β-estradiol], the pKi_value (receptor gper1_human (GPER1), Estrogen (G protein-coupled) receptors) is listed as 8.5.

In the case of O=C(O)CCC[C@H](O)\C=C/C=C/C=C/[C@H](O)C/C=C\CCCCCO [20-hydroxy-LTB4], the pKi_value [6] is listed as 8.1.

For NC[C@H](O)c1ccc(O)c(O)c1 [(-)-noradrenaline], the pKi_value (receptor ada1a_human (ADRA1A, P35348)) is given as 6.4, the pKi_value (receptor ada1b_human (ADRA1B, P35368)) is given as 6.2 and the pKi_value (receptor ada1d_human (ADRA1D, P25100)) is given as 7.4. For the same compound, the pKi_value (receptor ada2a_human (ADRA2A, P08913)) was 7.4, the pKi_value (receptor ada2b_human (ADRA2B, P18089)) was 6 and the pKi_value (receptor ada2c_human (ADRA2C, P18825)) was 6.8. For the same compound, the pKi_value (receptor adrb1_human (ADRB1, P08588)) was 6, the pKi_value (receptor adrb2_human (ADRB2, P07550)) was 4.8 and the pKi_value (receptor adrb3_human (ADRB3, P13945)) was 6.3.

For Nc1ncnc2c1ncn2[C@@H]1O[C@H](COP(=O)(O)OP(=O)(O)O)[C@@H](O)[C@H]1O [ADP], the pIC50_value [7] is listed as 7.2, the pKi_value (receptor p2y12_human (P2RY12), P2Y receptors) is listed as 5.9 and the pIC50_value [8] is listed as 6.5.

In the case of Nc1ncnc2c1ncn2[C@@H]1O[C@H](COP(=O)(O)OP(=O)(O)OP(=O)(O)O)[C@@H](O)[C@H]1O [ATP], the pIC50_value [7] is listed as 7.8, the pKi_value [7] is listed as 4.8 and the pEC50_value [1] is listed as 7.1. The pEC50_value [2] was 5.4, the pKd_value [2] was 6.2 and the pEC50_value [3] was 5.6. The pIC50_value [8] was 5.4.

In the case of N[C@@H](CCC(=O)O)C(=O)O [L-glutamic acid], the pEC50_value (receptor grm1_human (GRM1, Q13255)) is given as 5, the pEC50_value [9] is given as 5.4 and the pKi_value [9] is given as 4.9. For the same compound, the pEC50_value [10] was 5.4, the pKi_value [10] was 7.4 and the pEC50_value (receptor grm4_human (GRM4, Q14833)) was 5.5. For the same compound, the pEC50_value (receptor grm5_human (GRM5, P41594)) was 5.5, the pEC50_value (receptor grm6_human (GRM6, O15303)) was 5.2 and the pEC50_value [11] was 3. For the same compound, the pKi_value [11] was 3.1, the pEC50_value [12] was 5.6 and the pIC50_value [12] was 5.7.

In the case of C[C@H](O)C(=O)O [L-lactic acid], the pEC50_value (receptor hcar1_human (HCAR1), Hydroxycarboxylic acid receptors) is listed as 2.9.

For CCCCC/C=C\C[C@@H](O)/C=C/C=C/C=C\[C@@H](O)CCCC(=O)O [LTB4], the pEC50_value [5] is listed as 6.8, the pIC50_value [5] is listed as 7.6 and the pKd_value [5] is listed as 7.6. The pKi_value [6] was 9.4.

For CCCCC/C=C\C\C=C/C=C/C=C/[C@@H](SC[C@H](NC(=O)CC[C@H](N)C(=O)O)C(=O)NCC(=O)O)[C@@H](O)CCCC(=O)O [LTC4], the pEC50_value [13] is given as 7.7, the pIC50_value [13] is given as 6.5 and the pKi_value [13] is given as 8.1. For the same compound, the pEC50_value [14] was 7.3 and the pIC50_value [14] was 8.5.

In the case of CCCCC/C=C\C\C=C/C=C/C=C/[C@@H](SC[C@H](N)C(=O)NCC(=O)O)[C@@H](O)CCCC(=O)O [LTD4], the pEC50_value [13] is given as 8.5, the pIC50_value [13] is given as 8.1 and the pEC50_value [14] is given as 7.4. For the same compound, the pIC50_value [14] was 8.1 and the pKi_value [14] was 8.1.

In the case of CCCCC/C=C\C\C=C/C=C/C=C/[C@@H](SC[C@H](N)C(=O)O)[C@@H](O)CCCC(=O)O [LTE4], the pEC50_value [13] is listed as 6.7, the pIC50_value [13] is listed as 7 and the pKi_value [13] is listed as 7.8. For the same compound, the pEC50_value [14] was 5.9, the pIC50_value [14] was 5.7 and the pKi_value [14] was 6.5.

For CCCCC[C@H](O)/C=C/C=C\C=C\C=C\[C@@H](O)[C@@H](O)CCCC(=O)O [LXA4], the pEC50_value [15] is listed as 12 and the pKd_value [15] is listed as 9.3.

In the case of CCCCCCCC/C=C\CCCCCCCC(=O)NCCO [N-oleoylethanolamide], the pEC50_value (receptor GPR119 (gp119_human, Q8TDV5)) is given as 6.3.

For CCCCCCCCCCCCCCCCOC[C@H](COP(=O)([O-])OCC[N+](C)(C)C)OC(C)=O [PAF], the pIC50_value [16] is given as 8.2 and the pKi_value [16] is given as 7.9.

For CCCCC[C@H](O)/C=C/[C@H]1C(=O)C[C@H](O)[C@@H]1C/C=C\CCCC(=O)O [PGD2], the pKi_value [17] is listed as 8.6, the pKi_value [18] is listed as 9.2 and the pKi_value (receptor PTGER1 (pe2r1_human, P34995)) is listed as 4.7. The pKi_value [19] was 5, the pEC50_value [20] was 8.8 and the pKi_value [20] was 9. For the same compound, the pKi_value [21] was 7.7.

For CCCCC[C@H](O)/C=C/[C@H]1[C@H](O)CC(=O)[C@@H]1C/C=C\CCCC(=O)O [PGE2], the pKi_value [17] is given as 5.3, the pKi_value [18] is given as 7 and the pKi_value [22] is given as 8. For the same compound, the pKi_value [19] was 8.3, the pKd_value [23] was 8.7 and the pKi_value [23] was 9.5. For the same compound, the pEC50_value [20] was 6.1, the pKi_value [20] was 9.1 and the pKi_value [21] was 6.9. For the same compound, the pKi_value [24] was 4.5.

For CCCCC[C@H](O)/C=C/[C@@H]1[C@@H](C/C=C\CCCC(=O)O)[C@@H](O)C[C@H]1O [PGF2α], the pKi_value [17] is given as 6.4, the pKi_value [18] is given as 6.4 and the pKi_value [22] is given as 6.3. The pKi_value [19] was 6, the pKi_value [23] was 7.4 and the pEC50_value [20] was 6.1. The pKi_value [20] was 9.5, the pKi_value [21] was 8.5 and the pKi_value [24] was 5.1.

In the case of CCCCC[C@H](O)/C=C/[C@@H]1[C@H]2C/C(=C/CCCC(=O)O)O[C@H]2C[C@H]1O [PGI2], the pKi_value [22] is listed as 4.8, the pKi_value [20] is listed as 5.1 and the pKi_value (receptor pi2r_human (PTGIR), Prostanoid receptors) is listed as 7.8.

For CCCCC[C@H](O)/C=C/[C@H]1C(=O)C=C[C@@H]1C/C=C\CCCC(=O)O [PGJ2], the pKi_value [17] is given as 8.2 and the pKi_value [18] is given as 9.

In the case of CCCCC/C=C\C/C=C\C/C=C\C/C=C\CCCC(=O)OC(CO)CO [Peptide 2-arachidonoylglycerol], the pKi_value (receptor CNR2 (cnr2_human, P34972)) is listed as 6.8.

In the case of CCCCCCCC/C=C\CCCCCCCC(=O)OC(CO)COP(=O)(O)O (stereo not drawn) [Peptide 2-oleoyl-LPA], the pEC50_value (receptor gpr35_human (GPR35), Class A orphans) is listed as 7.5.
